{"source": "patent US5232917A", "about": "“Methods, compositions, and compounds for allosteric modulation of the GABA receptor by members of the androstane and pregnane series” (priority 1991, dated 1993)", "key": {"[1]": {"system": "number of light/dark transitions (anxiety)", "assay": "Light/dark transition test", "assay_type": "in vivo, mice (male N.I.H. Swiss-Webster)", "description": "(§1) The light/dark transition test (Crawley and Goodwin, 1980) is based on the observation that rodents naturally tend to explore novel environments, but open, brightly lit arenas are aversive to the rodents and inhibit exploratory behavior (Christmas and Maxwell, 1970; File, 1980). […] Similar to the light/dark transition test, the open-field test measures the antagonism between the tendency to explore a novel environment and the tendency to remain still in an aversive environment (brightly lit arena). […] The open-field test provides a simple, non-punished assessment of the potential anxiolytic properties of novel compounds. Finally, 3α-OH-DHP was tested for anxiolytic properties in a Vogel conflict paradigm. The ability of BZs to attenuate the suppression of behavior by punishment in conflict paradigms is well established (Gellar et al., 1962; Vogel et al., 1971).\n(§2) Male N.I.H. Swiss-Webster mice (Harlan) weighing 15-20 g were used in all experiments. The mice were housed 4/cage in polyethylene cages with sawdust bedding. The colony room was environmentally controlled (22° C.) with a 12 hr. light/dark cycle (0600-1800 hrs.). The mice had free access to food and water. The experiments were run from 0700-1500 hrs. and groups were counterbalanced for time of day effects.\nThe method used was previously described by Crawley and Goodwin (1980). The apparatus included a large box (26×33×24 cm) connected to a small box (15×22×14 cm) through an opening (5×6 cm). The large box was brightly lit with a standard 100W light bulb, while the small box was kept dark. Following pretreatment with a test drug, mice were placed in the center of the large box and the number of transitions between the large and small boxes was counted for 10 min. […] During the antagonist studies, CGS-8216 was administered 30 min. prior to the test drug.\n(§3) 2-Hydroxypropyl β-cyclodextrin Diazepam and chlordiazepoxide are available from Sigma, Co. (St. Louis, Mo.). CGS-8216 was obtained from Ciba-Geigy (Summit, N.J.). All drugs were dissolved in 20% β-cyclodextrin in water and sonicated overnight. All drugs were administered intraperitoneally in a volume of 100 μL/20 g. CGS-8216 was administered subcutaneously in a volume of 100 μL/20 g.\n(§4) The vehicle control data were analyzed across test days using an 1-way analysis of variance (ANOVA). […] The dose-response curves were then analyzed using an 1-way ANOVA, followed by Dunnett's t-test for individual comparisons between doses and control. The open-field and habituated locomotor data were analyzed using ANOVA followed by Dunnett's t-test. […] All data is expressed as the mean±S.E.M."}, "[2]": {"system": "number of light/dark transitions (anxiety)", "details": "Crawley et al., cited from earlier work; for effect on number of light/dark transitions (literature): Blumstein and Crawley, 1983"}, "[3]": {"system": "PMS, PND and catamenial epilepsy", "details": "cited from earlier work; for clinical effectiveness: PMS, PND, catamenial epilepsy (progesterone), menstrual-cycle correlated epileptic spells (desoxycorticosterone)"}, "[4]": {"system": "GABA receptor-chloride ionophore complex (GR complex)", "assay": "[35S]TBPS binding modulation assay"}, "punished responding": {"system": "punished responding", "assay": "Vogel conflict paradigm (lick suppression)", "assay_type": "in vivo, mice (male N.I.H. Swiss-Webster)", "details": "CDP 10 mg/kg", "description": "An Anxio-Monitor (Omnitech Electronics, Columbus, Ohio) was used for measuring lick suppression. The testing chamber consisted of a clear plexiglass box (29 cm×29 cm×23 cm) with a metal drinking tube located 2.5 cm from the floor and extending 2 cm into the box. The shock was applied through the drinking spout and was controlled by the Anxio-Monitor. […] The reinforcer was 0.1M sucrose.\nThe conflict test procedure described by Vogel et al. (1980) was employed. This procedure is a modification of the original lick suppression test first described by Vogel et al. (1971). After 24 hr. of water deprivation,mice were allowed to explore the test apparatus and drink without punishment for 10 min. or 100 licks. […] Mice were allowed unpunished access to the drinking tube for 20 licks, thereafter, every 10th lick was punished with 0.1 mA shock. The test duration was 5 min.\nas §4"}, "[5]": {"details": "Swinyard & Woodhead, 1982; cited from earlier work"}, "[6]": {"system": "strychnine-induced convulsions", "design": "key to ED50 STR (strychnine): NP: no protection", "details": "Swinyard & Woodhead, 1982; cited from earlier work"}, "[7]": {"system": "picrotoxin-induced convulsions", "details": "Swinyard & Woodhead, 1982; cited from earlier work"}, "[8]": {"system": "sedative potential (rotorod)", "details": "Swinyard & Woodhead, 1982; cited from earlier work"}, "[9]": {"system": "(+)bicuculline-induced seizures", "details": "Swinyard & Woodhead, 1982; cited from earlier work"}, "[10]": {"system": "metrazol-induced convulsions", "details": "Swinyard & Woodhead, 1982; cited from earlier work"}, "[11]": {"system": "maximal electroshock seizure", "details": "Swinyard & Woodhead, 1982; cited from earlier work"}, "[12]": {"system": "GABA receptor complex (36Cl uptake, cerebral cortical synaptoneurosomes)", "assay": "GABA-stimulated 36Cl uptake in rat cerebral cortical synaptoneurosomes", "assay_type": "biochemical, rat (male Sprague-Dawley)", "method": "In addition, the ability of the BZ clonazepam to modulate ^36 Cl uptake in the presence or absence of 5α-pregnandiol was evaluated.\nThe homogenate was diluted to a final volume of 40 mL with buffer and filtered through three layers of Nylon mesh (160 μm).\nAliquots of membrane preparation (200 μL) were preincubated at 30° C. for 10 min. The interaction was initiated by the simultaneous addition of drugs/steroids and 0.2 mL ^36 Cl (New England Nuclear Boston, Mass., 0.55 mCi/mmol, 0.8 μCi/ml) resulting in a total incubation volume of 0.4 mL. Steroids and test drugs were solubilized in dimethylsufoxide (DMSO) and added to the reaction mixture in 2 μL aliquots. An equal volume of vehicle was always included in the control reaction mixture. The mixture was gently mixed and ^36 Cl uptake terminated after 5 sec by the of 5 mL of ice cold buffer containing 100 μM picrotoxin (Sigma Chem Co.) followed immediately by rapid filtration through glass fiber filters (Whatman GF/C) under vacuum. The filters were washed twice with 5 mL of ice-cold buffer and the filter-bound radioactivity quantitated by liquid scintillation spectrophotometry. Specific uptake was calculated by subtracting the amount of ^36 Cl bound to the filters in the absence of synaptoneurosomes from that observed in their presence. Percent enhancement represents percent increase in uptake over that of basal ^36 Cl uptake. Statistical comparisons utilized the analysis of variance (ANOVA)."}, "open-field activity": {"system": "open-field activity", "assay": "Open-field activity test", "assay_type": "in vivo, mice (male N.I.H. Swiss-Webster)", "details": "diazepam 10 mg/kg", "description": "as §1, §2\nAs a secondary measure of anxiolytic effects, naive mice were placed in the center of a large, brightly lit plexiglass box (42×42×30.5 cm) and the total distance traveled was measured during a 10 min. test period. […] The Digiscan Activity Monitor (Omnitech Electronics, Columbus, Ohio) includes 16 photobeams that surround the box. The activity monitor is linked to a computer through a Digiscan Analyzer (Omnitech Electronics) and the data is analyzed using the Integrated Lab Animal Monitoring System (Omnitech Electronics). The mice were administered drugs as described for light/dark transitions.\nas §3, §4"}, "locomotor activity": {"system": "locomotor activity", "assay": "Locomotor activity in habituated mice", "assay_type": "in vivo, mice (male N.I.H. Swiss-Webster)", "method": "For evaluation of a drug's effects on general activity, mice were first habituated to the open-field apparatus for 15 min. The following day, mice were pretreated with a test drug and placed in the center of the activity chambers. The total distance traveled was measured for 10 min.\nas §4"}}, "note": "Like-named read-outs stand apart in the source and are kept apart here."}
{"compound": "O=C1C2C=Nc3ccccc3C2=NN1c1ccccc1", "note": "(stereo not drawn) [CGS-8216, reference compound]", "values": [{"measurement": "block of anxiolytic effect of 3α-OH-DHP by CGS-8216", "setting": "[1]; CGS-8216 10 mg/kg, 3α-OH-DHP 10 mg/kg, FIG. 13A", "value": "unable to block"}, {"measurement": "block of anxiolytic effect of diazepam by CGS-8216", "setting": "[1]; diazepam 1.0 mg/kg, FIG. 13B", "value": "able to block the anxiolytic effect of diazepam"}, {"measurement": "intrinsic activity in light/dark transition test", "setting": "[1]; p>0.4 vs vehicle", "value": "did not demonstrate any intrinsic activity"}, {"measurement": "block of diazepam's anxiolytic effects (literature)", "setting": "[2]; 1984", "value": "block diazepam's anxiolytic effects"}]}
{"compound": "CC(=O)[C@H]1CC[C@H]2[C@@H]3CCC4=CC(=O)CC[C@]4(C)[C@H]3CC[C@]12C", "note": "[PROGESTERONE, reference compound]", "values": [{"measurement": "dose-response relationship in the treatment of PMS", "setting": "[3]; Maddocks et al., Dennerstein et al.", "value": "no dose-response relationship exists"}, {"measurement": "clinical effectiveness", "setting": "[3]", "value": "not consistently effective"}, {"measurement": "potency/activity at the GR complex", "setting": "[4]; modulation of [35S]TBPS binding", "value": "very low potency"}, {"measurement": "IC50", "setting": "[4]; read-out: IC50, inhibition of [35S]-TBPS binding, +5 μM GABA, in the presence of 5 μM GABA", "value": 5.2, "unit": "µM"}, {"measurement": "IC50", "setting": "[4]; read-out: IC50, inhibition of [35S]-TBPS binding, No GABA, washed synaptoneurosomes, no GABA added", "value": "> 100", "unit": "µM"}, {"measurement": "Max. Inhib., maximal % of specifically bound [35S]-TBPS displaced", "setting": "[4]; saturating concentrations of test compound", "value": 100, "unit": "%"}]}
{"compound": "CNC1=Nc2ccc(Cl)cc2C(c2ccccc2)=[N+]([O-])C1", "note": "[CDP, reference compound]", "values": [{"measurement": "increase in punished responding vs controls", "setting": "punished responding; 5 min session, p=0.03, FIG. 14", "value": 197.4, "unit": "%"}, {"measurement": "punished responding", "setting": "punished responding; controls 3.11±0.68", "value": "6.14±1.14"}]}
{"compound": "O=C1CN=C(c2ccccc2Cl)c2cc([N+](=O)[O-])ccc2N1", "note": "[Clonazepam]", "values": [{"measurement": "LD50", "setting": "[5]", "value": "> 6000", "unit": "mg/kg"}, {"measurement": "ED50 STR (strychnine)", "setting": "[6]", "value": "NP"}, {"measurement": "ED50 PICRO (picrotoxin)", "setting": "[7]", "value": 0.043, "unit": "mg/kg"}, {"measurement": "ED50 RR (Rotorod)", "setting": "[8]", "value": 0.184, "unit": "mg/kg"}, {"measurement": "ED50 BIC (bicuculline)", "setting": "[9]", "value": 0.0086, "unit": "mg/kg"}, {"measurement": "ED50 MTZ (metrazol)", "setting": "[10]", "value": 0.009, "unit": "mg/kg"}, {"measurement": "effect on number of light/dark transitions (literature)", "setting": "[2]", "value": "increase the number of transitions"}, {"measurement": "ED50 MES (maximal electroshock)", "setting": "[11]", "value": 93, "unit": "mg/kg"}, {"measurement": "% enhancement of basal 36Cl uptake", "setting": "[12]; GABA (25 μM) + clonazepam (1 μM)", "value": "164±2", "unit": "%"}, {"measurement": "% enhancement of basal 36Cl uptake", "setting": "[12]; clonazepam (1 μM), no GABA", "value": "1 ± 0.5", "unit": "%"}]}
{"compound": "C[C@]12CC[C@H]3[C@@H](CCC4=CC(=O)CC[C@@]43C)[C@@H]1CC[C@@H]2C(=O)CO", "note": "[desoxycorticosterone]", "values": [{"measurement": "clinical effectiveness", "setting": "[3]", "value": "effective"}]}
{"compound": "CN1C(=O)CN=C(c2ccccc2)c2cc(Cl)ccc21", "note": "[Diazepam, reference compound]", "values": [{"measurement": "total distance, open-field", "setting": "open-field activity; 10 min, vehicle 2004.6 ± 134.6", "value": "4817.7 ± 528.4", "unit": "cm"}, {"measurement": "effect on open-field activity", "setting": "open-field activity; steroids 20 mg/kg", "value": "significant (p<0.01) increase in activity"}, {"measurement": "effect on number of light/dark transitions (words)", "setting": "[1]; 3α-OH-DHP 10, 20, 40 mg/kg, 5α-THDOC 20 mg/kg, diazepam 1.0, 5.0, 10, 20 mg/kg, 20 mg/kg", "value": "significantly (p<0.01) different from controls"}, {"measurement": "number of transitions in 10 min (maximal response)", "setting": "[1]; diazepam 10 mg/kg i.p., FIG. 11", "value": "86.4±5.4", "unit": "transitions"}, {"measurement": "effect on number of light/dark transitions (literature)", "setting": "[2]", "value": "increase the number of transitions"}, {"measurement": "effect on locomotor activity", "setting": "locomotor activity; acclimated mice", "value": "no effect"}, {"measurement": "total distance traveled, acclimated mice", "setting": "locomotor activity; diazepam 10 mg/kg, controls 2061.2±157.7 cm", "value": "2258.0±897.7", "unit": "cm"}]}
